Test results reported in PMC10611619, “[^99mTc]Tc-PentixaTec: development, extensive pre-clinical evaluation, and first human experience” (European Journal of Nuclear Medicine and Molecular Imaging, 2023).
Where a SMILES comes first, the peptide text is derived from it. Side-chain parts run from the residue outwards. [ ]: non-standard residue; d: D form. The star is where a group is joined. 2Nal = N[C@@H](Cc1ccc2ccccc2c1)C(=O)O; dNMeOrn = CN[C@H](CCCN)C(=O)O; 4Abz = Nc1ccc(C(=O)O)cc1; X1 = NCCNCC(CNCCN)C(=O)*; dDap = NC[C@@H](N)C(=O)O

Assay: Patient radiation dosimetry (OLINDA/EXM, RADAR/MIRD)
Assay type: in vivo, human
Details: for Absorbed organ dose Adrenals / Absorbed organ dose Brain / Absorbed organ dose Breast / Absorbed organ dose Gallbladder wall / Absorbed organ dose Heart wall / Absorbed organ dose Kidneys / Absorbed organ dose LLI wall / Absorbed organ dose Liver / Absorbed organ dose Lungs / Absorbed organ dose Muscle / Absorbed organ dose Osteogenic cells / Absorbed organ dose Ovaries / Absorbed organ dose Pancreas / Absorbed organ dose Red marrow / Absorbed organ dose Skin / Absorbed organ dose Small intestine / Absorbed organ dose Spleen / Absorbed organ dose Stomach wall / Absorbed organ dose Testes / Absorbed organ dose Thymus / Absorbed organ dose Thyroid / Absorbed organ dose Total body / Absorbed organ dose ULI wall / Absorbed organ dose Urinary bladder wall / Absorbed organ dose Uterus: per 1 MBq
Protocol: Radiation dosimetry calculations were performed using the RADAR (Radiation Dose Assessment Resource) method as implemented in the OLINDA/EXM software and according to the recommendations of the Medical Internal Radiation Dose (MIRD) committee. The individual absorbed organ doses (ODs) and the effective doses (EDs) were corrected to consider the current tissue weighting factors of ICRP 103 [38]. For a detailed description of image analysis for dosimetry, please refer to the supplementary materials section.
The Xeleris^TM Dosimetry Toolkit (GE Healthcare, Milwaukee, USA) was used to perform full organ segmentation by an experienced user. This was performed manually on CT images of organs (kidneys, liver, spleen, heart, lungs, lumbar vertebrae 2-4) to define the regions and volumes of interest (VOIs) for gamma camera scans and SPECT analysis. Quantification of the activity in the VOIs was carried out as converting counts in the VOIs by a calibration factor to the average activity per milliliter and per organ.
The VOIs were transferred from SPECT/CT to the planar images. Additional ROIs for the whole body and a background region adjacent to the head were drawn on the planar images.
The VOIs were used to determine the masses of the individual organs. For the lungs, a density of 0.288 g/mL was used. For all organs not covered by any VOI, the uptake was summed as the contribution from the remainder of the body in the dose calculation.
The time-integrated activity coefficients of all contoured organs were determined using the hybrid planar/SPECT method. Thus, the shape of the time-activity curves were estimated based on the planar images using the NUKFIT software and then scaled to activity values using the SPECT/CT. The accumulated activity in the bone marrow was calculated using the activity in the lumbar vertebrae 2-4 with the assumption that these contain 6.7% of the red bone marrow.
Radiation dosimetry calculations were performed using the RADAR (Radiation Dose Assessment Resource) method as implemented in the OLINDA/EXM software and according to the recommendations of the Medical Internal Radiation Dose (MIRD) committee. The OLINDA/EXM application (version 1.0) was used to calculate the individual absorbed organ doses (ODs) and the effective doses (EDs) by using the time-integrated activity coefficients and the individual patients’ organ masses. A mass of 1500 g for the red bone marrow as assumed for all patients. The EDs were afterwards corrected to consider the current tissue weighting factors of ICRP 103 [16]. The absorbed OD and ED were evaluated for each patient and then averaged across all the patients.

With `C[C@@H](NC(=O)[C@@H](CCCNC(=N)N)NC(=O)[C@@H](CN)NC(=O)C(CNCCN)CNCCN)C(=O)Nc1ccc(C(=O)NCCC[C@@H]2C(=O)N[C@@H](CCCNC(=N)N)C(=O)N[C@@H](Cc3ccc4ccccc4c3)C(=O)NCC(=O)N[C@H](Cc3ccc(O)cc3)C(=O)N2C)cc1` [[^99mTc]Tc-N4-L6-CPCR4, [^99mTc]Tc-N4-dap-r-a-Abz-CPCR4, metal not drawn] (cyclo([dY][dNMeOrn]([4Abz-dA-dR-dDap-X1])R[2Nal]G)) the “absorbed dose bone marrow, median” value (four patients) was 9.40E − 03 mGy/MBq, the “absorbed dose bone marrow, range” value (four patients) was 6.2E − 03–13.50E − 03 mGy/MBq and the “absorbed dose kidneys, median” value (four patients) was 1.23E − 02 mGy/MBq. The “absorbed dose kidneys, range” value (four patients) was 0.94 E − 02–1.37E − 02 mGy/MBq, the “absorbed dose spleen, median” value (four patients) was 1.95E − 02 mGy/MBq and the “absorbed dose spleen, range” value (four patients) was 1.61E − 02–2.38E − 02 mGy/MBq. The “effective dose per unit of administered activity, median” value (four patients) was 5.3E − 03 mSv/MBq, the “effective dose per unit of administered activity, range” value (four patients) was 4.3E − 03–6.7E − 03 mSv/MBq and the “Absorbed organ dose Adrenals” value (Median) was 0.0065 mGy. For the same compound, the “Absorbed organ dose Brain” value (Median) was 0.0030 mGy, the “Absorbed organ dose Breast” value (Median) was 0.0025 mGy and the “Absorbed organ dose Gallbladder wall” value (Median) was 0.0060 mGy. For the same compound, the “Absorbed organ dose Heart wall” value (Median) was 0.0044 mGy, the “Absorbed organ dose Kidneys” value (Median) was 0.0123 mGy and the “Absorbed organ dose LLI wall” value (Median) was 0.0048 mGy. The “Absorbed organ dose Liver” value (Median) was 0.0077 mGy, the “Absorbed organ dose Lungs” value (Median) was 0.0063 mGy and the “Absorbed organ dose Muscle” value (Median) was 0.0035 mGy. For the same compound, the “Absorbed organ dose Osteogenic cells” value (Median) was 0.0136 mGy, the “Absorbed organ dose Ovaries” value (Median) was 0.0050 mGy and the “Absorbed organ dose Pancreas” value (Median) was 0.0070 mGy. The “Absorbed organ dose Red marrow” value (Median) was 0.0094 mGy, the “Absorbed organ dose Skin” value (Median) was 0.0023 mGy and the “Absorbed organ dose Small intestine” value (Median) was 0.0049 mGy. The “Absorbed organ dose Spleen” value (Median) was 0.0195 mGy, the “Absorbed organ dose Stomach wall” value (Median) was 0.0051 mGy and the “Absorbed organ dose Testes” value (Median) was 0.0026 mGy. The “Absorbed organ dose Thymus” value (Median) was 0.0036 mGy, the “Absorbed organ dose Thyroid” value (Median) was 0.0033 mGy and the “Absorbed organ dose Total body” value (Median) was 0.0037 mGy. For the same compound, the “Absorbed organ dose ULI wall” value (Median) was 0.0049 mGy, the “Absorbed organ dose Urinary bladder wall” value (Median) was 0.0041 mGy and the “Absorbed organ dose Uterus” value (Median) was 0.0047 mGy. The “Absorbed organ dose Adrenals” value (Patient 1) was 0.0053 mGy, the “Absorbed organ dose Brain” value (Patient 1) was 0.0023 mGy and the “Absorbed organ dose Breast” value (Patient 1) was 0.0021 mGy. For the same compound, the “Absorbed organ dose Gallbladder wall” value (Patient 1) was 0.0051 mGy, the “Absorbed organ dose Heart wall” value (Patient 1) was 0.0040 mGy and the “Absorbed organ dose Kidneys” value (Patient 1) was 0.0137 mGy. The “Absorbed organ dose LLI wall” value (Patient 1) was 0.0037 mGy, the “Absorbed organ dose Liver” value (Patient 1) was 0.0066 mGy and the “Absorbed organ dose Lungs” value (Patient 1) was 0.0051 mGy. The “Absorbed organ dose Muscle” value (Patient 1) was 0.0028 mGy, the “Absorbed organ dose Osteogenic cells” value (Patient 1) was 0.0099 mGy and the “Absorbed organ dose Ovaries” value (Patient 1) was 0.0040 mGy. The “Absorbed organ dose Pancreas” value (Patient 1) was 0.0055 mGy, the “Absorbed organ dose Red marrow” value (Patient 1) was 0.0065 mGy and the “Absorbed organ dose Skin” value (Patient 1) was 0.0018 mGy. For the same compound, the “Absorbed organ dose Small intestine” value (Patient 1) was 0.0041 mGy, the “Absorbed organ dose Spleen” value (Patient 1) was 0.0161 mGy and the “Absorbed organ dose Stomach wall” value (Patient 1) was 0.0040 mGy. For the same compound, the “Absorbed organ dose Testes” value (Patient 1) was 0.0023 mGy, the “Absorbed organ dose Thymus” value (Patient 1) was 0.0030 mGy and the “Absorbed organ dose Thyroid” value (Patient 1) was 0.0028 mGy. The “Absorbed organ dose Total body” value (Patient 1) was 0.0028 mGy, the “Absorbed organ dose ULI wall” value (Patient 1) was 0.0040 mGy and the “Absorbed organ dose Urinary bladder wall” value (Patient 1) was 0.0033 mGy. The “Absorbed organ dose Uterus” value (Patient 1) was 0.0038 mGy, the “Absorbed organ dose Adrenals” value (Patient 2) was 0.0078 mGy and the “Absorbed organ dose Brain” value (Patient 2) was 0.0032 mGy. For the same compound, the “Absorbed organ dose Breast” value (Patient 2) was 0.0028 mGy, the “Absorbed organ dose Gallbladder wall” value (Patient 2) was 0.0068 mGy and the “Absorbed organ dose Heart wall” value (Patient 2) was 0.0049 mGy. For the same compound, the “Absorbed organ dose Kidneys” value (Patient 2) was 0.0117 mGy, the “Absorbed organ dose LLI wall” value (Patient 2) was 0.0053 mGy and the “Absorbed organ dose Liver” value (Patient 2) was 0.0087 mGy. The “Absorbed organ dose Lungs” value (Patient 2) was 0.0079 mGy, the “Absorbed organ dose Muscle” value (Patient 2) was 0.0038 mGy and the “Absorbed organ dose Osteogenic cells” value (Patient 2) was 0.0162 mGy. For the same compound, the “Absorbed organ dose Ovaries” value (Patient 2) was 0.0054 mGy, the “Absorbed organ dose Pancreas” value (Patient 2) was 0.0083 mGy and the “Absorbed organ dose Red marrow” value (Patient 2) was 0.0135 mGy. For the same compound, the “Absorbed organ dose Skin” value (Patient 2) was 0.0024 mGy, the “Absorbed organ dose Small intestine” value (Patient 2) was 0.0053 mGy and the “Absorbed organ dose Spleen” value (Patient 2) was 0.0238 mGy. The “Absorbed organ dose Stomach wall” value (Patient 2) was 0.0057 mGy, the “Absorbed organ dose Thymus” value (Patient 2) was 0.0040 mGy and the “Absorbed organ dose Thyroid” value (Patient 2) was 0.0032 mGy. The “Absorbed organ dose Total body” value (Patient 2) was 0.0039 mGy, the “Absorbed organ dose ULI wall” value (Patient 2) was 0.0055 mGy and the “Absorbed organ dose Urinary bladder wall” value (Patient 2) was 0.0043 mGy. For the same compound, the “Absorbed organ dose Uterus” value (Patient 2) was 0.0049 mGy, the “Absorbed organ dose Adrenals” value (Patient 3) was 0.0083 mGy and the “Absorbed organ dose Brain” value (Patient 3) was 0.0039 mGy. The “Absorbed organ dose Breast” value (Patient 3) was 0.0032 mGy, the “Absorbed organ dose Gallbladder wall” value (Patient 3) was 0.0073 mGy and the “Absorbed organ dose Heart wall” value (Patient 3) was 0.0054 mGy. The “Absorbed organ dose Kidneys” value (Patient 3) was 0.0128 mGy, the “Absorbed organ dose LLI wall” value (Patient 3) was 0.0062 mGy and the “Absorbed organ dose Liver” value (Patient 3) was 0.0089 mGy. The “Absorbed organ dose Lungs” value (Patient 3) was 0.0075 mGy.
